Measurements as given in patent publication US10294244B2, “2,3-dihydro-thiazolo[3,2-A]pyridin-5-one derivatives, intermediates thereof, and their use as antibacterial agents” (Quretech Bio AB, priority 2014, dated 2019).

Tested on: C. trachomatis serovar LGV-L2
Test: Inhibition of infectious Chlamydia progenies (C. trachomatis infectivity, reinfection of HeLa cells, IFU count)
Type: cell-based
Conditions: infected HeLa cells, MOI 0.3, compound added 1 hpi, 44-48 h, relative to DMSO-treated control; for inhibition at 2.5 µM: 2.5 uM compound; for inhibition at 10 µM: 10 uM compound; for inhibition at 50 µM: 50 uM compound; for inhibition at 100 µM: 100 uM compound
Protocol: Cell Culture, C. trachomatis Infections, and Determination of C. trachomatis Infectivity.
HeLa cells were infected with C. trachomatis serovar LGV-L2 at an MOI of 0.3. At 1 hpi, RPMI media containing the different dilutions of the tested compounds in DMSO were added. The different compounds were dissolved to 20 mM in DMSO and were then diluted with RPMI media to be added at 2.5 to 100 μM. After 44-48 h incubation, the cells were osmotically lysed by the addition of cold sterile distilled water to release infectious EB progeny. 5×SPG was added to equalize the osmotic pressure to a 1×SPG isotonic condition. An equal amount of HBSS (Hanks balanced salt solution) (Gibco/Invitrogen) was added to the lysate (yielding a 1:1 dilution) and 10-fold serial dilutions of the resulting mixture was used to infect fresh HeLa cells. At 1 hpi, the inoculum was replaced with RPMI media and the infection allowed to progress for 44-48 hours before fixation and staining. Fixation was performed by adding methanol for 5 minutes and the cells were subsequently washed with phosphate buffered saline (PBS). The chlamydial inclusions were stained by a primary rabbit anti-Chlamydia antibody (generated in-house) and a secondary donkey anti-rabbit FITC-labelled antibody (Jackson ImmunoResearch). The DNA of the cells and Chlamydia was stained by the addition of DAPI. The stained cells were analyzed by an ArrayScan automated scanner (ArrayScan VTI HCS, Thermo Scientific). Data were presented as the relative numbers of IFUs in treated infections compared to the numbers of IFUs in DMSO-treated control infections.
The compounds of Examples 1-33 were tested for inhibition of infectious Chlamydia progenies at concentrations of 2.5 μM, 10 μM, 50 μM and 100 μM. In this document μM stands for micromolar. The compounds of the present disclosure were considered to have antibacterial activity if they provided 50% or more inhibition of infectious Chlamydia progenies using at least one of the tested concentrations in Table 1.

Compound COc1c(COc2cccc(C)c2C)cc(=O)n2c1SC[C@H]2C(=O)Nc1ccc(Cl)cn1 [Example 17, {(3R)-7-Methoxy-4-oxo-6-[(2,3-xylyloxy)methyl]-1-thia-3a-aza-3-indanyl}(5-chloro-2-pyridylamino)formaldehyde] has an inhibition at 2.5 µM of 79% and an inhibition at 10 µM of 100%.
Work on COc1c(Cc2cccc(C)c2C)cc(=O)n2c1SC[C@H]2C(=O)Nc1ccc(C)cc1 [Example 5, {(3R)-7-Methoxy-4-oxo-6-[(2,3-xylyl)methyl]-1-thia-3a-aza-3-indanyl}(p-toluidino)formaldehyde] yielded an inhibition at 2.5 µM of 100% and an inhibition at 10 µM of 100%.
Compound CC(C)COc1c(Cc2cccc3ccccc23)cc(=O)n2c1SC[C@H]2C(=O)O [Example 30, (3R)-7-Isobutoxy-6-[(1-naphthyl)methyl]-4-oxo-1-thia-3a-aza-3-indancarboxylic acid] has an inhibition at 50 µM of 67% and an inhibition at 100 µM of 90%.
In the case of COc1c(Cc2cccc(C)c2C)c(N)c(=O)n2c1SC[C@H]2C(=O)Nc1ccccc1 [Example 13, {(3R)-5-Amino-7-methoxy-4-oxo-6-[(2,3-xylyl)methyl]-1-thia-3a-aza-3-indanyl}anilinoformaldehyde], the inhibition at 2.5 µM is reported as 75% and the inhibition at 10 µM is reported as 100%.
Work on COc1c(Cc2cccc(C)c2C)cc(=O)n2c1SC[C@H]2C(=O)Nc1ccccc1 [Example 3, {(3R)-7-Methoxy-4-oxo-6-[(2,3-xylyl)methyl]-1-thia-3a-aza-3-indanyl}anilinoformaldehyde] yielded an inhibition at 2.5 µM of 95% and an inhibition at 10 µM of 100%.
Compound CC(C)Nc1c(Cc2cccc3ccccc23)cc(=O)n2c1SC[C@H]2C(=O)O [Example 33, (3R)-7-(Isopropylamino)-6-[(1-naphthyl)methyl]-4-oxo-1-thia-3a-aza-3-indancarboxylic acid] has an inhibition at 100 µM of 50%.
O=C(Nc1ccccc1)[C@@H]1CSc2c(C(F)(F)F)c(Cc3cccc4ccccc34)cc(=O)n21 [Example 12, {(3R)-6-[(1-Naphthyl)methyl]-4-oxo-7-(trifluoromethyl)-1-thia-3a-aza-3-indanyl}anilinoformaldehyde] gave an inhibition at 2.5 µM of 98% and an inhibition at 10 µM of 100%.
Cc1ccc(NC(=O)[C@@H]2CSc3c(C4CC4)c(Cc4cccc(C)c4C)cc(=O)n32)cc1 [Example 20, {(3R)-7-Cyclopropyl-4-oxo-6-[(2,3-xylyl)methyl]-1-thia-3a-aza-3-indanyl}(p-toluidino)formaldehyde] gave an inhibition at 2.5 µM of 99%.
CC(=O)Nc1c(Cc2cccc3ccccc23)cc(=O)n2c1SC[C@H]2C(=O)Nc1ccccc1 [Example 26, 1-{3-Anilinocarbonyl-6-[(1-naphthyl)methyl]-4-oxo-1-thia-3a-aza-7-indanylamino}-1-ethanone] gave an inhibition at 10 µM of 54% and an inhibition at 50 µM of 87%.
Work on COc1c(Cc2cccc(C)c2C)cc(=O)n2c1SC[C@H]2c1nnc(-c2ccccc2)o1 [Example 15, (3R)-7-Methoxy-3-(5-phenyl-1,3,4-oxadiazol-2-yl)-6-[(2,3-xylyl)methyl]-1-thia-3a-aza-4-indanone] yielded an inhibition at 2.5 µM of 84% and an inhibition at 10 µM of 100%.
With COc1c(Cc2cccc(C)c2C)c(N)c(=O)n2c1SC[C@H]2c1nc(-c2ccccc2)no1 [Example 14, (3R)-5-Amino-7-methoxy-3-(3-phenyl-1,2,4-oxadiazol-5-yl)-6-[(2,3-xylyl)methyl]-1-thia-3a-aza-4-indanone] the inhibition at 2.5 µM was 76% and the inhibition at 10 µM was 100%.
COc1c(Cc2cccc3ccccc23)c(N)c(=O)n2c1SC[C@H]2C(=O)Nc1ccc(C)cc1 [Example 9, {(3R)-5-Amino-7-methoxy-6-[(1-naphthyl)methyl]-4-oxo-1-thia-3a-aza-3-indanyl}(p-toluidino)formaldehyde] gave an inhibition at 2.5 µM of 89% and an inhibition at 10 µM of 100%.
In the case of Cc1cccc(Cc2cc(=O)n3c(c2N(C)C)SC[C@H]3C(=O)O)c1C [Example 31, (3R)-7-(Dimethylamino)-4-oxo-6-[(2,3-xylyl)methyl]-1-thia-3a-aza-3-indancarboxylic acid], the inhibition at 50 µM is reported as 29% and the inhibition at 100 µM is reported as 86%.
In the case of Cc1ccc(NC(=O)[C@@H]2CSc3c(C4CC4)c(Cc4ccc(Cl)cc4)cc(=O)n32)cc1 [Example 21, {(3R)-6-[(p-Chlorophenyl)methyl]-7-cyclopropyl-4-oxo-1-thia-3a-aza-3-indanyl}(p-toluidino)formaldehyde], the inhibition at 2.5 µM is reported as 99%.
Work on O=C(Nc1ccccc1)[C@@H]1CSc2c(Cl)c(Cc3cccc4ccccc34)cc(=O)n21 [Example 11, {(3R)-7-Chloro-6-[(1-naphthyl)methyl]-4-oxo-1-thia-3a-aza-3-indanyl}anilinoformaldehyde] yielded an inhibition at 2.5 µM of 97% and an inhibition at 10 µM of 100%.
Compound O=c1cc(Cc2cccc3ccccc23)c(C2CC2)c2n1[C@H](c1nc(-c3ccccc3)n[nH]1)CS2 [Example 22, (3R)-7-Cyclopropyl-6-[(1-naphthyl)methyl]-3-(5-phenyl-2H-1,2,4-triazol-3-yl)-1-thia-3a-aza-4-indanone] has an inhibition at 2.5 µM of 98% and an inhibition at 10 µM of 100%.
COc1c(Cc2cccc(C)c2C)cc(=O)n2c1SC[C@H]2C(=O)Nc1cc(C)cc(F)c1 [Example 4, {(3R)-7-Methoxy-4-oxo-6-[(2,3-xylyl)methyl]-1-thia-3a-aza-3-indanyl}(3-fluoro-5-toluidino)formaldehyde] gave an inhibition at 2.5 µM of 99% and an inhibition at 10 µM of 100%.
With COC(=O)Nc1c(Cc2cccc3ccccc23)cc(=O)n2c1SC[C@H]2C(=O)Nc1ccccc1 [Example 27, {(3R)-7-(Methoxycarbonylamino)-6-[(1-naphthyl)methyl]-4-oxo-1-thia-3a-aza-3-indanyl}anilinoformaldehyde] the inhibition at 10 µM was 96% and the inhibition at 50 µM was 98%.
For COc1c(Cc2cccc(C)c2C)c(N)c(=O)n2c1SC[C@H]2C(=O)Nc1cc(C)cc(F)c1 [Example 8, {(3R)-5-Amino-7-methoxy-4-oxo-6-[(2,3-xylyl)methyl]-1-thia-3a-aza-3-indanyl}(3-fluoro-5-toluidino)formaldehyde], the inhibition at 2.5 µM was 87% and the inhibition at 10 µM was 100%.
Compound O=C(O)[C@@H]1CSc2c(C(F)(F)F)c(Cc3cccc4ccccc34)cc(=O)n21 [Example 29, (3R)-6-[(1-Naphthyl)methyl]-4-oxo-7-(trifluoromethyl)-1-thia-3a-aza-3-indancarboxylic acid] has an inhibition at 100 µM of 56%.
CN(C)c1c(Cc2cccc3ccccc23)cc(=O)n2c1SC[C@H]2C(=O)Nc1ccccc1 [Example 24, {(3R)-7-(Dimethylamino)-6-[(1-naphthyl)methyl]-4-oxo-1-thia-3a-aza-3-indanyl}anilinoformaldehyde] showed an inhibition at 10 µM of 98% and an inhibition at 50 µM of 99%.
COc1c(Cc2cccc(C)c2C)c(N)c(=O)n2c1SC[C@H]2C(=O)Nc1ccc(C)cc1 [Example 7, {(3R)-5-Amino-7-methoxy-4-oxo-6-[(2,3-xylyl)methyl]-1-thia-3a-aza-3-indanyl}(p-toluidino)formaldehyde] was tested, and the inhibition at 2.5 µM was 90% and the inhibition at 10 µM was 100%.
COc1c(Cc2cccc3ccccc23)c(N)c(=O)n2c1SC[C@H]2C(=O)Nc1ccccc1 [Example 6, {(3R)-5-Amino-7-methoxy-6-[(1-naphthyl)methyl]-4-oxo-1-thia-3a-aza-3-indanyl}anilinoformaldehyde] gave an inhibition at 2.5 µM of 63% and an inhibition at 10 µM of 100%.
COc1c(Cc2cccc(C)c2C)cc(=O)n2c1SC[C@H]2c1nc(-c2ccccc2)no1 [Example 16, (3R)-7-Methoxy-3-(3-phenyl-1,2,4-oxadiazol-5-yl)-6-[(2,3-xylyl)methyl]-1-thia-3a-aza-4-indanone] was tested, and the inhibition at 2.5 µM was 81% and the inhibition at 10 µM was 100%.
O=C(Nc1ccccc1)[C@@H]1CSc2c(O)c(Cc3cccc4ccccc34)cc(=O)n21 [Example 10, {(3R)-7-Hydroxy-6-[(1-naphthyl)methyl]-4-oxo-1-thia-3a-aza-3-indanyl}anilinoformaldehyde] gave an inhibition at 2.5 µM of 88% and an inhibition at 10 µM of 98%.
For Cc1cccc(OCc2cc(=O)n3c(c2C2CC2)SCC3C(=O)Nc2ccccc2)c1C (stereo not drawn) [Example 19, Anilino{7-cyclopropyl-4-oxo-6-[(2,3-xylylyloxy)methyl]-1-thia-3a-aza-3-indanyl}formaldehyde], the inhibition at 2.5 µM was 100%.
In the case of CC(C)Nc1c(Cc2cccc3ccccc23)cc(=O)n2c1SC[C@H]2C(=O)Nc1ccccc1 [Example 23, Anilino{7-(isopropylamino)-6-[(1-naphthyl)methyl]-4-oxo-1-thia-3a-aza-3-indanyl}formaldehyde], the inhibition at 10 µM is reported as 98% and the inhibition at 50 µM is reported as 98%.
Cc1ccc(Cc2cc(=O)n3c(c2N(C)C)SC[C@H]3C(=O)O)c2ccccc12 [Example 32, (3R)-7-(Dimethylamino)-6-[(4-methyl-1-naphthyl)methyl]-4-oxo-1-thia-3a-aza-3-indancarboxylic acid] showed an inhibition at 50 µM of 91% and an inhibition at 100 µM of 99%.
